Results reported in patent US20090030055A1, “PKC activation as a means for enhancing s[sequence] secretion and improving cognition using bryostatin type compounds” (priority 2002, published 2009).
pEC50, pKi: −log10 of the molar value. “Also recorded” adds a separate entry of the source. Where two headings read alike, the source gives them in different places.

Tests used:
PKC [1] = conditions: cited from earlier work
[2] = system: Transgenic mice carrying the V7171 mutation; assay: Transgenic mice carrying the V7171 APP mutation, APP species in brain and health; type: in vivo; conditions: for deaths: 5-6 months old animals
Method: Transgenic mice carrying the V7171 mutation were treated with BL (1 mg/kg, i.p.; daily) from […] of age (after weaning) for 17 weeks (n=4). The control group (n=4) received vehicle alone (Tween 20 1%, DMSO 25%, 74% PBS). Another experimental group consisted of 5-6 months old animals treated for 7 weeks. Subgroups of these animals were treated with BL 1 mg/kg, daily (n=5); BL 10 mg/kg, daily (n=3; due to two deaths); BL 10 mg/kg, weekly (n=4; one death), LQ12 10 mg/kg, daily (n=5); and LQ12 10 mg/kg, weekly (n=5). Five additional animals received vehicle alone for the same period. After completion of the treatment, animals were euthanized according to K.U.L. (Belgium) guidelines. Brains were removed and prepared for biochemical analyses of APP species.
Immunoblot analysis. The biochemical analysis of intermediates of APP metabolism has been described elsewhere by Dewachter et al. (Aging increased amyloid peptide and caused amyloid plaques in brain of old APP/V7171 transgenic mice by a different mechanism than mutant presenilinl. J. Neurosci. 2000; 20:6452-8.). Briefly, brains were homogenized in 6.5 vol. of ice-cold buffer containing 20 mm Tris-HCl, pH 8.5, and a mixture of proteinase inhibitors (Roche, Darmstadt, Germany). After centrifugation at 135,000×g at 4° C. for 1 hr, the supernatant was centrifuged again for 2 hr at 200,000×g before analysis of soluble amyloid peptides by specified ELISA. The pellets from the first centrifugation were resuspended in TBS containing 2% Triton X-100, 2% Nonidet P40 and proteinase inhibitors and centrifuged at 100.000×g at 4° C. for 1 hr. This protein fraction was used for analysis of membrane-bound APP. Western blotting of membrane bound APP was performed on this protein fraction containing membrane-bound proteins, with monoclonal antibody 8E5. Total secreted APP and a-secretase cleaved secreted APP-a were detected by Western blotting analysis on the supernatant of the first centrifugation, with monoclonal antibody 8E5 and monoclonal antibody JRF14, respectively. Proteins were denatured and reduced in sample buffer containing a final concentration of 2% SDS, 1% 2-ME and separated on 8% TRIS Glycine gels (Novex, San Diego, Calif.). After incubation with appropriate secondary antibodies, all Western blots were developed with the ECL detection system and photographically recorded. Application of a series of diluted sample allowed quantitation. Densitometric scanning of films and normalization were performed using a flatbed optical density scanner and dedicated software for analysis and measurement (Image Master; Pharmacia, Uppsala, Sweden).
ELISA of amyloid peptides. Protein extracts were applied on reversed-phase columns (C18-Sep-pack cartridges; Waters Corporation, Milford, Mass.) and washed with increasing concentrations of acetonitrile (5, 25, and 50%) containing 0.1% trifluoroacetic acid. The last fraction contained the amyloid peptides and was dried in vacuo overnight and dissolved for measurements in ELISA. Sandwich ELISA for human […] peptides was performed using the capture antiserum JRF/cAβ40/10 and 21F12, respectively, and they were developed with monoclonal antibodies JRFcAβ/tot/14 hrpo and 3D6, respectively (Vanderstichele H, Van Kerschaver E, Hese C, Davidsson P, Buyse M A, Andreansen N, Minthon L, Wallin A, Blennow K, Vanmechelen E. Standardization of measurements of beta-amyloid (1-42) in cerebrospinal fluid and plasma. Amyloid 2000; 7: 245-258).
Standard general health assessment and open field were conducted in all animals prior to the biochemical assessments. In addition, a semi-quantitative ad hoc score was devised to measure abdominal contractions that followed the injections (+=weak, <2 min; […]).

[3] = system: sAPPα secretion, AD cell line AG06848; assay: sAPPα secretion immunoblot, AD fibroblasts; type: cell-based, human
Method: Cultured skin fibroblasts were obtained from the Coriell Cell Repositories and grown using the general guidelines established for their culture with slight modifications (Cristofalo & Carpentier, 1988; Hirashima et al., 1996). The culture medium in which cells were grown was Dulbecco's modified Eagle's medium (GIBCO) supplemented with 10% fetal calf serum (Biofluids, Inc.). Fibroblasts from control cell lines (AC), cases AG07141 and AG06241, and a familial AD (FAD) case (AG06848) were utilized.
Cells grown to confluence in 6 cm Petri dishes for 5-7 days. On the day of the experiment, medium was replaced with DMEM without serum and left undisturbed for 2 h. Upon completion of the 2 hour serum deprivation; treatment was achieved by direct application to the medium of Bryo, BL and DMSO at the appropriate concentrations. (0.1 and 0.01 nM for bryostatin; 0.1 nM, 0.1 μM, and 1 μM BL). DMSO was less than 1% in all cases. In most cases, medium was collected and processed after 3 hours of treatment for sAPP secretion. Other time points were also used to establish a time course of secretion.
sAPP—Determinations/Measurements of sAPPα
The concentration of secreted APP was measured using conventional immunoblotting techniques, with minor modifications the protocol. Precipitated protein extracts from each dish/treatment were loaded to freshly prepared 10% acrylamide Tris-HCl minigels and separated by SDPAGE. The volume of sample loaded was corrected for total cell protein per dish. Proteins were then electrophoretically transferred to PVDF membranes. Membranes were saturated with 5% non-fat dry milk to block non-specific binding. Blocked membranes were incubated overnight at 4° C. with the commercially available antibody 6E10 (1:500), which recognizes sAPP-alpha in the conditioned medium (SENETEK). After washing, the membranes were incubated at room temperature with horseradish peroxidase conjugated anti-mouse IgG secondary antibody (Jackson's Laboratories). The signal was then detected using enhanced chemiluminescence followed by exposure of Hyperfilm ECL (Amersham). The band intensities were quantified by densitometry using a BioRad GS-800 calibrated scanning densitometer and Multianalyst software (BioRad).

[4] = system: sAPP secretion, control fibroblasts; conditions: cited from earlier work
[5] = system: sAPP secretion, AD fibroblasts; conditions: benzolactam-treated cells; cited from earlier work
PKCε = target: T1, PKCε (Homo sapiens, UniProt Q02156); conditions: cited from earlier work
T1 sequence (Q02156 1-737): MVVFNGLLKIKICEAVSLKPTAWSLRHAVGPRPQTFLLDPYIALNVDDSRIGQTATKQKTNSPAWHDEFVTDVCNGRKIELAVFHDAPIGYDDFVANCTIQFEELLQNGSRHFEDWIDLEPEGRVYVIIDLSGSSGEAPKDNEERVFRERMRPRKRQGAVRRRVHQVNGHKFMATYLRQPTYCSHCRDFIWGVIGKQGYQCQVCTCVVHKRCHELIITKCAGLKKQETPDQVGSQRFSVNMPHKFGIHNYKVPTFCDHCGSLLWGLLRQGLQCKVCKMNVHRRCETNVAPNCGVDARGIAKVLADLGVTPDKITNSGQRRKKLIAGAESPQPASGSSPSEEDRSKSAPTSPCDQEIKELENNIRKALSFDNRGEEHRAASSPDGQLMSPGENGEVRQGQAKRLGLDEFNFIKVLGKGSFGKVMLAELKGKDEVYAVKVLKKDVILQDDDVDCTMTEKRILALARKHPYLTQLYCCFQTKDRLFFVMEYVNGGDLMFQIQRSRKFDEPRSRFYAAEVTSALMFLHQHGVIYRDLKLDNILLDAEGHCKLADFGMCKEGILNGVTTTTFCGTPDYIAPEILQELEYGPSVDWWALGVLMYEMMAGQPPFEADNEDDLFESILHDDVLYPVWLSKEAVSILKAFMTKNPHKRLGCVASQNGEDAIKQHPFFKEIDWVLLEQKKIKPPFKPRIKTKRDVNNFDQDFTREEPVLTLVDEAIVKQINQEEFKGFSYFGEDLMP

PKC [6] = conditions: competes with [3H]phorbol dibutyrate; read-out: Ki for binding; cited from earlier work
[7] = system: squamous cell carcinoma and melanoma; conditions: used topically; cited from earlier work
NCI 60 cell line screen = conditions: cited from earlier work
protein kinase C = conditions: (−)-enantiomer; cited from earlier work
[8] = 1 mg/kg i.p. daily from 3 weeks of age for 17 weeks
[9] = 1 mg/kg i.p. daily from 3 weeks of age for 17 weeks, vs vehicle
[10] = 6 months old animals, 7 weeks, 10 mg/kg daily
[11] = 6 months old animals, 7 weeks, 10 mg/kg weekly
[12] = A-ring bryologs, read-out: affinity for PKC

SMILES: CCCCCCCC(=O)O[C@H]1/C(=C/C(=O)OC)C[C@H]2C[C@H](CO)OC(=O)C[C@H](O)CCOCC[C@@H]3CCO[C@H](/C=C/C(C)(C)[C@]1(O)O2)O3 [Analog 2]
- affinity for PKC, in words (PKC [1]): high affinity
- pKi (PKC [1]; read-out: PKC Affin): 8.19

SMILES: CCCCCCCCC#Cc1ccc2c(c1)C[C@@H](CO)NC(=O)[C@H](C(C)C)N2C [BL, benzolactam]
- APP membrane-bound [2, 8]: no differences
- amount of Aβ42 [2, 8]: no differences
- total secreted sAPP (sAPPα+sAPPβ) [2, 8]: no differences
- Aβ40 in brain [2, 9]: concomitant and proportional reduction
- sAPPα in brain [2, 9]: significant increase
- general health ([2]; 1 mg/kg i.p. daily, 17 weeks): no differences in general health
- intensity of abdominal contractions after injection ([2]; 1 mg/kg i.p. daily, 17 weeks, vs vehicle group): somewhat elevated
- deaths ([2]; 7 weeks, 10 mg/kg daily): two deaths
- deaths ([2]; 7 weeks, 10 mg/kg weekly): one death
- sAPPα in brain ([2]; 6 months old animals, 7 weeks, 1 mg/kg daily): no effect
- Aβ40 in brain [2, 10]: increase
- sAPPα in brain [2, 10]: slight increase
- Aβ40 in brain [2, 11]: slight decrease
- sAPPα in brain [2, 11]: slight increase
- secretion of sAPPα ([3]; AD cell line AG06848, 0.1 nM, three hours of treatment, relative to DMSO): no real impact on secretion
- concentration giving significant increases of sAPP secretion [4]: 10 µM
- sAPP secretion in AD cells compared to control fibroblasts [5]: slightly higher

SMILES: CCCCCC1CC1CC1CC1CCCCCCCC(=O)O (stereo not shown) [DCP-LA, 2-[(2-pentylcyclopropyl)methyl]cyclopropaneoctanoic acid]
- concentration of maximal effect on PKCε (PKCε): 100 nM

SMILES: CC1=C[C@]23C(=O)[C@@H](C=C(COC(=O)c4ccccc4)[C@@H](O)[C@]2(O)[C@H]1OC(=O)c1ccccc1)[C@H]1[C@@H](C[C@H]3C)C1(C)C [Ingenol 3,20-dibenzoate]
- pKi (PKC [6]): 6.62

SMILES: C/C=C(/C)C(=O)O[C@H]1C(C)=C[C@]23C(=O)[C@@H](C=C(CO)[C@@H](O)[C@]12O)[C@H]1[C@@H](C[C@H]3C)C1(C)C [Ingenol-3-angelate]
- antitumor activity [7]: possesses antitumor activity

SMILES: CC1=CC[C@H](C)C(C)(C)[C@@H]1/C=C/C(C)=C/CC[C@@]1(CO)[C@H](CCCO)/C(=C(/C)C=O)CC[C@]1(C)O [Iripallidal]
- G150 (concentration required to inhibit growth by 50%) (NCI 60 cell line screen): micromolar to nanomolar range

SMILES: CCCCCCCC(=O)OC1C(=CC(=O)OC)CC2CC(CO)OC(=O)CC(O)CCOC(C(C)(C)C)CC3CCOC(C=CC(C)(C)C1(O)O2)O3 (stereo not shown) [bryolog 3]
- pKi (PKC [1]; [12]): 8.19

SMILES: CCCCCCCC(=O)OC1C(=CC(=O)OC)CC2CC(CO)OC(=O)CC(O)CCOC(c3ccccc3)CC3CCOC(C=CC(C)(C)C1(O)O2)O3 (stereo not shown) [bryolog 4]
- pKi (PKC [1]; [12]): 8.64

SMILES: CCCCCCCC(=O)OC1C(=CC(=O)OC)CC2CC(CO)OC(=O)CC(O)CCOC(CCCc3ccc(Br)cc3)CC3CCOC(C=CC(C)(C)C1(O)O2)O3 (stereo not shown) [bryolog 5]
- pKi (PKC [1]; [12]): 8.72

SMILES: CCCCCCCCc1ccc2c3c(c[nH]c13)C[C@@H](CO)NC(=O)[C@H](C(C)C)N2C [octylindolactam V, Octylindolactam V]
- pEC50 (protein kinase C): 7.54

SMILES: CN[C@@H]1C[C@H]2O[C@@](C)([C@@H]1OC)n1c3ccccc3c3c4c(c5c6ccccc6n2c5c31)C(=O)NC4 [staurosporin]
- effect of pre-treatment on bryostatin-induced sAPPα secretion ([3]; 100 nM pre-treatment, bryostatin 0.1 nM): abolished the effects of 0.1 nM bryostatin; also recorded: completely abolished the effect
